Consider four molecules from patent publication US20060166316A1, “Phosphodiesterase 10a7 isoforms and methods of use” (Memory Pharmaceuticals Corporation, priority 2003, published 2006).

Molecules are shown by their SMILES. pIC50: −log10 of the molar value.

Assay [1] deals with T1, mmPDE10A7 (Mus musculus, UniProt Q8CA95, M75I).
T1 construct: Full-length mmPDE10A7 cDNA cloned in the pENTR vector was recombined to pDEST™8; made in house; host or cells: Sf9 insect cells (baculovirus, pDEST8 / DH10BAC); used as crude cell lysate supernatant, dialysed for IMAP
T1 sequence (Q8CA95 with tags, fused parts or gaps M75I): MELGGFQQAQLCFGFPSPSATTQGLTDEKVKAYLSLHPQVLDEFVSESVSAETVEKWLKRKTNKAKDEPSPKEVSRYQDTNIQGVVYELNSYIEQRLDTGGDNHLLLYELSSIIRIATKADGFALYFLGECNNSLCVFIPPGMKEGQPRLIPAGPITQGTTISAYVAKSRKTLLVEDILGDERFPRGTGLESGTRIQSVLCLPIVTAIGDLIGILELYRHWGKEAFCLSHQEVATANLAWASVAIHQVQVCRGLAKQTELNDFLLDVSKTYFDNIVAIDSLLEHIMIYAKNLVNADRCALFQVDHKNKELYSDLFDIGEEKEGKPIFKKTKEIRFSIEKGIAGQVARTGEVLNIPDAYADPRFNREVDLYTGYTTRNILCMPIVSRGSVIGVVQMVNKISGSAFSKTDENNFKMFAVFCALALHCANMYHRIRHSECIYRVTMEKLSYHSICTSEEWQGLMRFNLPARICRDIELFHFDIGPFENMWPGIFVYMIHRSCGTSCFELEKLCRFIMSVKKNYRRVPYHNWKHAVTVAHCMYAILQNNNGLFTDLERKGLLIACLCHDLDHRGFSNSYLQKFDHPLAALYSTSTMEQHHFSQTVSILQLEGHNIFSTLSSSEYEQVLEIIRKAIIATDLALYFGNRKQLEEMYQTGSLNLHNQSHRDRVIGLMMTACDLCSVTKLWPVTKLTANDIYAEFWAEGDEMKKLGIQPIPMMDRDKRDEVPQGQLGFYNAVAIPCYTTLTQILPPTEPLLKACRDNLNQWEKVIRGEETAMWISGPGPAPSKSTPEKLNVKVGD
The experiment in a line: Km determination with [3H]-cAMP/cAMP or [3H]-cGMP/cGMP. The class given is biochemical. To be noted: substrate of mmPDE10A7; 30 minutes at room temperature, pH 8.0. The source says: (§1) Full-length mmPDE10A7 cDNA cloned in the pENTR vector was recombined to pDEST™8 by clonase in DH5α competent bacteria (Invitrogen). DH10BAC, the competent bacteria containing baculovirus genome, was then transformed with the pDEST™8-mmPDE10A7. The white colonies were selected in the presence of gentamicin, kanamycin, tetracycline, Bluogal and IPTG and were confirmed by PCR. Log-phase sf9 cells were then transfected with recombinant baculovirus DNA by the method of Cellfectin in a 6-well plate. Forty-eight to seventy-two hours after the transfection, 0.5 ml medium from the transfected cell plate was added into a 175-cm^2 flask containing 2×10^7 sf9 cells for further amplification of the recombinant baculovirus. The sf9 cells were collected 48 hours after infection.
(§2) To prepare the cell lysate, the sf9 cells expressing mmPDE10A7 were resuspended in cell lysis buffer containing Tris/HCl (pH 7.5) 50 mM, NaCl 10 mM, EGTA 5 mM, EDTA (pH 8.0) 1 mM, DTT 1 mM, Protease Inhibitor Cocktail (Roche) 1 tablet per 50 ml buffer. The cell suspension was then homogenized with a Polytron (PT2100) at speed 20 for 20 seconds on ice and centrifuged at 10,000×g for 20 minutes. The supernatant was then collected and stored at −80° C.

Assay [2] addresses T1, mmPDE10A7. The experiment in a line: IMAP fluorescence polarization compound inhibition assay. The class given is biochemical. To be noted: recombinant mmPDE10A7 in sf9 cell lysate.
Source text: as §1, §2
Then, the cassette was placed in 1 liter of fresh assay buffer and continued to dialyze for 2 more hours at 4° C. After the second dialysis, the cell lysate was recovered with a clean syringe and stored at −80° C.
An IMAP Assay kit (Molecular Device) was used to assess enzyme properties of mmPDE10A7. […] Both the enzyme and the substrates were diluted in the following assay buffer: Tris/HCl (pH 8.0) 50 mM, MgCl2 5 mM, 2-mercaptoethanol 4 mM, BSA 0.33 mg/ml. After incubation, the reaction was stopped by adding 20 μl of diluted (400-fold) binding reagents and was incubated for an hour at room temperature. Then, the plates were counted in Analyst GT (Molecular Device) for fluorescence polarization. The data were analyzed with SoftMax Pro. The high end (EC80 to EC100) of the linear range was served as the working enzyme concentration for compound inhibition assays.
Then, the reaction was stopped by adding 20 μl of diluted binding reagents and counted in Analyst GT for fluorescence polarization.
(Polarisation of emitted light reports the rotation of a fluorescent probe.)

[3] abbreviates: fluorescein labeled cAMP substrate.
The mark [4] stands for this setting: fluorescein labeled cGMP substrate.

In the case of `Nc1nc2c(ncn2[C@@H]2O[C@@H]3COP(=O)(O)O[C@H]3[C@H]2O)c(=O)[nH]1` [cGMP, cyclic guanosine 5′ monophosphate], the Km at mmPDE10A7 [1] came to 3.7 µM. Regarding `Cc1[nH]c(=O)c(C#N)cc1-c1ccncc1` [milrinone], the IC50 result on mmPDE10A7 [2] (setting [3]) and on mmPDE10A7 [2] (setting [4]) was “No inhibition” throughout.

Regarding `COc1ccc(Cc2nccc3cc(OC)c(OC)cc23)cc1OC` [papaverine], the pIC50 at mmPDE10A7 [2] (IC50, fluorescein labeled cAMP substrate) was 7.36; on mmPDE10A7 [2] (IC50, fluorescein labeled cGMP substrate) it was 7.66. Regarding `CCOC(=O)C1=C[C@]2(CC)CCCN3CCc4c(n1c1ccccc41)[C@@H]32` [vinpocetine], the IC50 result on mmPDE10A7 [2] (setting [3]) and on mmPDE10A7 [2] (setting [4]) was “No inhibition” in each case.

As a reminder, the Km is the substrate concentration at which the rate is half of its maximum. As usually defined, the pIC50 is the IC50 on a negative log10 scale, so that one unit is a factor of ten.
